What follows are compounds tested against T1, Human KLK1 (Homo sapiens, UniProt P06870) (assay: Determination of the IC50 for KLK1 (fluorogenic substrate H-DVal-Leu-Arg-AFC)). Conditions: 37° C.
T1 construct: purchased Callbiochem (Calbiochem)
Assay type: biochemical
Method: Determination of the IC50 for KLK1
KLK1 inhibitory activity in vitro was determined using standard published methods (see e.g. Johansen et al., Int. J. Tiss. Reac. 1986, 8, 185; Shori et al., Biochem. Pharmacol., 1992, 43, 1209; Stürzebecher et al., Biol. Chem. Hoppe-Seyler, 1992, 373, 1025). Human KLK1 (Callbiochem) was incubated at 37° C. with the fluorogenic substrate H-DVal-Leu-Arg-AFC and various concentrations of the test compound. Residual enzyme activity (initial rate of reaction) was determined by measuring the change in optical absorbance at 410 nm and the IC50 value for the test compound was determined.

T1 sequence (P06870 25-262): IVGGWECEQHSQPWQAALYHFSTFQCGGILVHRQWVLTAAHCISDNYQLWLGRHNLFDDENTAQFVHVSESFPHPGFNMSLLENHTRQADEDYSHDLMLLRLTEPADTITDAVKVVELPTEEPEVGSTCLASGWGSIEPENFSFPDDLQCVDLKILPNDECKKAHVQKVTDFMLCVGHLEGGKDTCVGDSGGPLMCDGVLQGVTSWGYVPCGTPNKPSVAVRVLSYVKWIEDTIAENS

SMILES	IC50 [nM]
CN[C@@H](C(=O)N[C@@H](Cc1ccc(F)cc1)C(=O)NCc1ccc(N)nc1)C(C)C [Example 89, (R)—N-[(S)-1-[(6-Amino-pyridin-3-ylmethyl)-carbamoyl]-2-(4-fluoro-phenyl)-ethyl]-3-methyl-2-methylamino-butyramide]	11
CC(C)CN(C)CC(=O)N[C@@H](Cc1ccc(F)c(F)c1)C(=O)NCc1ccc(N)nc1 [Example 168, (S)—N-(6-Amino-pyridin-3-ylmethyl)-3-(3,4-difluoro-phenyl)-2-[2-(isobutyl-methyl-amino)-acetylamino]-propionamide]	291
Cc1ccc(-c2ccc(C(=O)N[C@@H](Cc3ccc(F)c(F)c3)C(=O)NCc3ccc(N)nc3)[nH]2)cc1 [Example 294, 5-p-Tolyl-1H-pyrrole-2-carboxylic acid [(S)-1-[(6-amino-pyridin-3-ylmethyl)-carbamoyl]-2-(3,4-difluoro-phenyl)-ethyl]-amide]	35.6
COc1cccc(C[C@H](NC(=O)[C@H]2CCCN2C)C(=O)NCc2ccc(N)nc2)c1 [Example 107, (R)-1-Methyl-pyrrolidine-2-carboxylic acid [(S)-1-[(6-amino-pyridin-3-ylmethyl)-carbamoyl]-2-(3-methoxy-phenyl)-ethyl]-amide]	71.2
C[C@H](C(=O)N[C@@H](Cc1ccc(F)cc1)C(=O)NCc1ccc(N)nc1)N1CCCCC1 [Example 374, (R)—N-[(S)-1-[(6-Amino-pyridin-3-ylmethyl)-carbamoyl]-2-(4-fluoro-phenyl)-ethyl]-2-piperidin-1-yl-propionamide]	52.7
C[C@H](C(=O)N[C@@H](Cc1ccc(Cl)c(Cl)c1)C(=O)NCc1ccc(N)nc1)N1CCCCC1 [Example 402, (R)—N-[(S)-1-[(6-Amino-pyridin-3-ylmethyl)-carbamoyl]-2-(3,4-dichloro-phenyl)-ethyl]-2-piperidin-1-yl-propionamide]	13
Nc1ccc(CNC(=O)[C@H](Cc2cccc(C(F)(F)F)c2)NC(=O)CN2CCCCC2)cn1 [Example 420, (S)—N-(6-Amino-pyridin-3-ylmethyl)-2-(2-piperidin-1-yl-acetylamino)-3-(3-trifluoromethyl-phenyl)-propionamide]	117
CCC(C)[C@@H](NC)C(=O)N[C@@H](Cc1ccc(O)cc1)C(=O)NCc1ccc(N)nc1 (stereo partly drawn) [Example 47, (R)-3-Methyl-2-methylamino-pentanoic acid [(S)-1-[(6-amino-pyridin-3-ylmethyl)-carbamoyl]-2-(4-hydroxy-phenyl)-ethyl]-amide]	316
CN1CCC[C@@H]1C(=O)N[C@@H](Cc1ccncc1)C(=O)NCc1ccc(N)nc1 [Example 112, (R)-1-Methyl-pyrrolidine-2-carboxylic acid {(S)-1-[(6-amino-pyridin-3-ylmethyl)-carbamoyl]-2-pyridin-4-yl-ethyl}-amide]	257
CN1CCC[C@@H]1C(=O)N[C@@H](Cc1ccccc1)C(=O)NCc1ccc(N)nc1 [Example 101, (R)-1-Methyl-pyrrolidine-2-carboxylic acid {(S)-1-[(6-amino-pyridin-3-ylmethyl)-carbamoyl]-2-phenyl-ethyl}-amide]	24.1
Nc1ccc(CNC(=O)[C@H](Cc2ccc(F)cc2)NC(=O)c2cc3ccccc3[nH]2)cn1 [Example 330, 1H-Indole-2-carboxylic acid [(S)-1-[(6-amino-pyridin-3-ylmethyl)-carbamoyl]-2-(4-fluoro-phenyl)-ethyl]-amide]	23.6
Cc1cc(C)c(C(=O)N[C@@H](Cc2ccc(O)cc2)C(=O)NCc2ccc(N)nc2)[nH]1 [Example 247, 3,5-Dimethyl-1H-pyrrole-2-carboxylic acid [(S)-1-[(6-amino-pyridin-3-ylmethyl)-carbamoyl]-2-(4-hydroxy-phenyl)-ethyl]-amide]	200
CC(C)N(C)CC(=O)N[C@@H](Cc1ccc(Cl)c(Cl)c1)C(=O)NCc1ccc(N)nc1 [Example 150, (S)—N-(6-Amino-pyridin-3-ylmethyl)-3-(3,4-dichloro-phenyl)-2-[2-(isopropyl-methyl-amino)-acetylamino]-propionamide]	12
CCN1CCC[C@@H]1C(=O)N[C@@H](Cc1cccc(Cl)c1)C(=O)NCc1ccc(N)nc1 [Example 138, (R)-1-Ethyl-pyrrolidine-2-carboxylic acid [(S)-1-[(6-amino-pyridin-3-ylmethyl)-carbamoyl]-2-(3-chloro-phenyl)-ethyl]-amide]	39.8
Cc1cc(C)c(C(=O)N[C@@H](Cc2ccc(-c3ccccc3)cc2)C(=O)NCc2ccc(N)nc2)[nH]1 [Example 252, 3,5-Dimethyl-1H-pyrrole-2-carboxylic acid {(S)-1-[(6-amino-pyridin-3-ylmethyl)-carbamoyl]-2-biphenyl-4-yl-ethyl}-amide]	43.2
CN(CC(=O)N[C@@H](Cc1ccc(F)c(F)c1)C(=O)NCc1ccc(N)nc1)c1ccccc1 [Example 174, (S)—N-(6-Amino-pyridin-3-ylmethyl)-3-(3,4-difluoro-phenyl)-2-[2-(methyl-phenyl-amino)-acetylamino]-propionamide]	90
CCC(C)[C@H](NC)C(=O)N[C@@H](Cc1ccc(F)c(F)c1)C(=O)NCc1ccc(N)nc1 (stereo partly drawn) [Example 82, (S)-3-Methyl-2-methylamino-pentanoic acid [(S)-1-[(6-amino-pyridin-3-ylmethyl)-carbamoyl]-2-(3,4-difluoro-phenyl)-ethyl]-amide]	11.2
CCC(C)[C@@H](NC)C(=O)N[C@@H](CC1CCCCC1)C(=O)NCc1ccc(N)nc1 (stereo partly drawn) [Example 21, (R)-3-Methyl-2-methylamino-pentanoic acid {(S)-1-[(6-amino-pyridin-3-ylmethyl)-carbamoyl]-2-cyclohexyl-ethyl}-amide]	22.8

Now those with a lower IC50, led by results:

IC50 [nM]	SMILES
6.5	Cc1cc(C)c(C(=O)N[C@@H](Cc2ccc(F)cc2)C(=O)NCc2ccc(N)nc2C)[nH]1 [Example 285, 3,5-Dimethyl-1H-pyrrole-2-carboxylic acid [(S)-1-[(6-amino-2-methyl-pyridin-3-ylmethyl)-carbamoyl]-2-(4-fluoro-phenyl)-ethyl]-amide]
3.3	CCC(C)[C@@H](N)C(=O)N[C@@H](Cc1ccc2ccccc2c1)C(=O)NCc1ccc(N)nc1 (stereo partly drawn) [Example 34, (R)-2-Amino-3-methyl-pentanoic acid {(S)-1-[(6-amino-pyridin-3-ylmethyl)-carbamoyl]-2-naphthalen-2-yl-ethyl}-amide]
8.8	CC(C)N1CCC[C@@H]1C(=O)N[C@@H](Cc1ccccc1F)C(=O)NCc1ccc(N)nc1 [Example 125, (R)-1-Isopropyl-pyrrolidine-2-carboxylic acid [(S)-1-[(6-amino-pyridin-3-ylmethyl)-carbamoyl]-2-(2-fluoro-phenyl)-ethyl]-amide]
1.9	Cc1cc(C)c(C(=O)N[C@@H](Cc2ccc(Cl)c(Cl)c2)C(=O)NCc2ccc(N)nc2C)[nH]1 [Example 280, 3,5-Dimethyl-1H-pyrrole-2-carboxylic acid [(S)-1-[(6-amino-2-methyl-pyridin-3-ylmethyl)-carbamoyl]-2-(3,4-dichloro-phenyl)-ethyl]-amide]
5	C[C@@H](N)C(=O)N[C@@H](CC1CCCC2CCCCC21)C(=O)NCc1ccc(N)nc1 (stereo partly drawn) [Example 18, (R)-2-Amino-N-[(S)-1-[(6-amino-pyridin-3-ylmethyl)-carbamoyl]-2-(decahydro-naphthalen-1-yl)-ethyl]-propionamide]
3.3	Cc1cc[nH]c1C(=O)N[C@@H](Cc1cccc(C(F)(F)F)c1)C(=O)NCc1ccc(N)nc1 [Example 271, 3-Methyl-1H-pyrrole-2-carboxylic acid [(S)-1-[(6-amino-pyridin-3-ylmethyl)-carbamoyl]-2-(3-trifluoromethyl-phenyl)-ethyl]-amide]
9.4	Nc1ccc(CNC(=O)[C@H](Cc2cccc3ccccc23)NC(=O)c2cc3ccccc3[nH]2)cn1 [Example 298, 1H-Indole-2-carboxylic acid {(S)-1-[(6-amino-pyridin-3-ylmethyl)-carbamoyl]-2-naphthalen-1-yl-ethyl}-amide]
0.83	CC(C)N(C)[C@@H](C)C(=O)N[C@@H](Cc1cccc(C(F)(F)F)c1)C(=O)NCc1ccc(N)nc1 [Example 417, (S)—N-[(S)-1-[(6-Amino-pyridin-3-ylmethyl)-carbamoyl]-2-(3-trifluoromethyl-phenyl)-ethyl]-2-(isopropyl-methyl-amino)-propionamide]
6.7	CN[C@@H](C)C(=O)N[C@@H](Cc1ccc(F)cc1)C(=O)NCc1ccc(N)nc1 [Example 88, (S)—N-[(S)-1-[(6-Amino-pyridin-3-ylmethyl)-carbamoyl]-2-(4-fluoro-phenyl)-ethyl]-2-methylamino-propionamide]
5.4	CCN(CC)C(C)C(=O)N(C)C(CC1CCCCC1)C(=O)NCc1ccc(N)nc1 [Example 438, S)—N-{(S)-1-[(6-Amino-pyridin-3-ylmethyl)-carbamoyl]-2-cyclohexyl-ethyl}-2-diethylamino-N-methyl-propionamide]
4	CN1CCC[C@@H]1C(=O)N[C@@H](Cc1ccc(Cl)cc1Cl)C(=O)NCc1ccc(N)nc1 [Example 110, (R)-1-Methyl-pyrrolidine-2-carboxylic acid [(S)-1-[(6-amino-pyridin-3-ylmethyl)-carbamoyl]-2-(2,4-dichloro-phenyl)-ethyl]-amide]
1.1	C[C@@H](C(=O)N[C@@H](Cc1ccc(Cl)c(Cl)c1)C(=O)NCc1ccc(N)nc1)N1CCCCC1 [Example 403, (S)—N-[(S)-1-[(6-Amino-pyridin-3-ylmethyl)-carbamoyl]-2-(3,4-dichloro-phenyl)-ethyl]-2-piperidin-1-yl-propionamide]
3.8	C[C@H](C(=O)N[C@@H](Cc1ccc(F)c(F)c1)C(=O)NCc1ccc(N)nc1)N1CCCC1 [Example 356, (R)—N-[(S)-1-[(6-Amino-pyridin-3-ylmethyl)-carbamoyl]-2-(3,4-difluoro-phenyl)-ethyl]-2-pyrrolidin-1-yl-propionamide]

Reference: US20100076015A1, “Aminopyridine Derivatives” (VANTIA LIMITED, priority 2008, published 2010)
